Source: patent publication US20240116985A1, “STAPLED PEPTIDES AND METHODS THEREOF” (priority 2020, published 2024)

What was measured:
[1] = target: T1, full-length beta-Catenin (Uniprot ID P35222) (Homo sapiens, UniProt P35222); assay: Fluorescence polarization IC50 (beta-catenin / 5FAM-TCF4 10-53 competition); assay type: binding; conditions: fluorescence polarization; read-out: beta-Catenin FP IC50
T1 construct: 10 nM full-length beta-Catenin (Uniprot ID P35222)
T1 sequence (P35222 1-781): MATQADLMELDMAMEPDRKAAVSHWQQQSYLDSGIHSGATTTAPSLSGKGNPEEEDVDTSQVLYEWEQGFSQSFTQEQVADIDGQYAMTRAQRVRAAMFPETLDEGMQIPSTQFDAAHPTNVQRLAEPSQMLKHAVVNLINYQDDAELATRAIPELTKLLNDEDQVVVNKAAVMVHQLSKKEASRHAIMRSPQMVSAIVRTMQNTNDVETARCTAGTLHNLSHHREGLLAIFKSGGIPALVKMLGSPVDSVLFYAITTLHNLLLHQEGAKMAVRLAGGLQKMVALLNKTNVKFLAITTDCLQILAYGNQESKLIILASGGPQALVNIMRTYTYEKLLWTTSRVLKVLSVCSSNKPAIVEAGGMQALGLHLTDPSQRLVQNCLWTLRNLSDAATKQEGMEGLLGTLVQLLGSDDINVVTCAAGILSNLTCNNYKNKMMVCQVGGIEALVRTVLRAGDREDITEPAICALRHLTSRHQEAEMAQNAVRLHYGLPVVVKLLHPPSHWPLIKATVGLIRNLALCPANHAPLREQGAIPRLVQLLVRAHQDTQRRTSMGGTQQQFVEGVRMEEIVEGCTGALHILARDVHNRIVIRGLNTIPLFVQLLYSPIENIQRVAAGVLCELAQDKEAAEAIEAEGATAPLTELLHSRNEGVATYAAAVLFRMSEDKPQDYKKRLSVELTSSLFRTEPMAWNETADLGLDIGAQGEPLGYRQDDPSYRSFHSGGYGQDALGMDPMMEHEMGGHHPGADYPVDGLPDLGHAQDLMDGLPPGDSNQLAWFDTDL

[2] = target: T2, beta-catenin/TCF4 engagement (Homo sapiens, UniProt P35222); assay: Nano-BRET target engagement assay (B-cat-Halo & TCF4-Luc in HEK293 cells); assay type: cell-based; conditions: absolute IC50; read-out: NanoBRET Abs IC50
T2 construct: expressed in transfected cells; host or cells: HEK293
T2 sequence (P35222 1-781): T1 sequence (P35222 1-781)

Structure (SMILES) | IC50 [1] [nM] | IC50 [2] [µM]
CCCC[C@@H]1NC(=O)[C@H](CN(CC(=O)O)CC(F)(F)F)NC(=O)[C@H](CC(=O)O)NC(=O)C2(CCCC=CCCCOC(=O)N3CC[C@@](C(=O)N[C@@H](Cc4ccccc4Cl)C(=O)N[C@@H](Cc4csc5ccccc45)C(=O)N[C@@H](CCC(N)=O)C(N)=O)(C3)NC(=O)[C@H]([C@@H](C)O)NC(=O)[C@H](Cc3ccccc3)NC(=O)CNC1=O)CCCC=CC[C@]1(CCCN1C(C)=O)C(=O)N[C@@H](CC(=O)O)C(=O)N[C@@H](CC(C)(C)C)C(=O)N2 (stereo partly drawn) [I-1695, Ac-PL3-Asp-Npg-B5-Asp-TfeGA-nLeu-Gly-Phe-Thr-PyrS2-2C1F-BztA-Gln-NH2] | 93 | > 20
CC(=O)N1CCC[C@]12CC=CCCCC1(CCCC=CCCCOC(=O)N3CC[C@@](C(=O)N[C@@H](Cc4ccccc4Cl)C(=O)N[C@@H](Cc4csc5ccccc45)C(=O)N[C@@H](CCC(N)=O)C(N)=O)(C3)NC(=O)[C@H]([C@@H](C)O)NC(=O)[C@H](Cc3ccccc3)NC(=O)CNC(=O)C(C)(C)NC(=O)[C@H](CN(CC(=O)O)CC(F)(F)F)NC(=O)[C@H](CC(=O)O)NC1=O)NC(=O)[C@H](CC(C)(C)C)NC(=O)[C@H](CC(=O)O)NC2=O (stereo partly drawn) [I-1696, Ac-PL3-Asp-Npg-B5-Asp-TfeGA-Aib-Gly-Phe-Thr-PyrS2-2C1F-BztA-Gln-NH2] | 32 | 35.5
CC(=O)N1CCC[C@]12CCCCCCC1(CCCCCCCCCOC(=O)N3CC[C@@](C(=O)N[C@@H](Cc4ccsc4)C(=O)N[C@@H](Cc4csc5ccccc45)C(=O)N[C@@H](CCC(N)=O)C(N)=O)(C3)NC(=O)[C@H](CC(C)C)NC(=O)[C@H](Cc3ccccc3)NC(=O)[C@H](C)NC(=O)[C@H](C)NC(=O)[C@H](CN(CC(=O)O)CC(F)(F)F)NC(=O)[C@H](CC(=O)O)NC1=O)NC(=O)[C@H](CC(C)(C)C)NC(=O)[C@H](CC(=O)O)NC2=O (stereo partly drawn) [I-1697, Ac-PL3-Asp-Npg-B5-Asp-TfeGA-Ala-Ala-Phe-Leu-PyrS3-3Thi-BztA-Gln-NH2] | 179 | > 20
CC(=O)N1CCC[C@]12CCCCCCC1(CCCCCCCCCCC[C@@](C)(C(=O)N[C@@H](Cc3ccsc3)C(=O)N[C@@H](Cc3csc4ccccc34)C(=O)N[C@@H](CCC(N)=O)C(N)=O)NC(=O)[C@H](CC(C)C)NC(=O)[C@H](Cc3ccccc3)NC(=O)[C@H](C)NC(=O)[C@H](C)NC(=O)[C@H](CN(CC(=O)O)CC(F)(F)F)NC(=O)[C@H](CC(=O)O)NC1=O)NC(=O)[C@H](CC(C)(C)C)NC(=O)[C@H](CC(=O)O)NC2=O (stereo partly drawn) [I-1698, Ac-PL3-Asp-Npg-B5-Asp-TfeGA-Ala-Ala-Phe-Leu-S8-3Thi-BztA-Gln-NH2] | 165 | > 20
CC(=O)N1CCC[C@]12CC=CCCCC1(CCCC=CCCCOC(=O)N3CC[C@@](C(=O)N[C@@H](Cc4ccccc4)C(=O)N[C@@H](Cc4csc5ccccc45)C(=O)N[C@@H](CCC(N)=O)C(N)=O)(C3)NC(=O)[C@H](CC(C)C)NC(=O)[C@H](Cc3ccccc3)NC(=O)[C@H](C)NC(=O)[C@H](C)NC(=O)[C@H](CN(CC(=O)O)CC(F)(F)F)NC(=O)[C@H](CC(=O)O)NC1=O)NC(=O)[C@H](CC(C)(C)C)NC(=O)[C@H](CC(=O)O)NC2=O (stereo partly drawn) [I-1700, Ac-PL3-Asp-Npg-B5-Asp-TfeGA-Ala-Ala-Phe-Leu-PyrS2-Phe-BztA-Gln-NH2] | 16 | 4.8
CC(=O)N1CCC[C@]12CC=CCCCC1(CCCC=CCCCOC(=O)N3CC[C@@](C(=O)N[C@@H](Cc4cccnc4)C(=O)N[C@@H](Cc4csc5ccccc45)C(=O)N[C@@H](CCC(N)=O)C(N)=O)(C3)NC(=O)[C@H](CC(C)C)NC(=O)[C@H](Cc3ccccc3)NC(=O)[C@H](C)NC(=O)[C@H](C)NC(=O)[C@H](CN(CC(=O)O)CC(F)(F)F)NC(=O)[C@H](CC(=O)O)NC1=O)NC(=O)[C@H](CC(C)(C)C)NC(=O)[C@H](CC(=O)O)NC2=O (stereo partly drawn) [I-1701, Ac-PL3-Asp-Npg-B5-Asp-TfeGA-Ala-Ala-Phe-Leu-PyrS2-3PyrA-BztA-Gln-NH2] | 25 | 24.8
